# Measured values reported in patent US12077503B2, “Substituted cyclic amides and their use as herbicides” (FMC CORPORATION, priority 2015, dated 2024).
# How the values were obtained:
# Assay type in all cases: in vivo
# Kochia (Kochia scoparia) [1] = test: Test A postemergence; details: for Kochia plant response rating: visual injury rating on 0 to 100 scale (0 no effect, 100 complete control), approx. 10 d
# Summary of the method: (§1)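 Visual injury scores from 0, no effect, to 100, complete control, were assigned versus untreated controls roughly 10 d after treatment in the greenhouse. Test chemicals, formulated with surfactant in a non-phytotoxic solvent, were applied to planted seeds as a preemergence soil spray or postemergence to one- to two-leaf plants 2 to 10 cm tall, in loam–sand soil.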
# [2] = test system: Galium (catchweed bedstraw, Galium aparine); test: Test A postemergence; details: for Galium plant response rating: visual injury rating on 0 to 100 scale (0 no effect, 100 complete control), approx. 10 d
# Summary of the method: as §1
# [3] = test system: pigweed (Amaranthus retroflexus); test: Test A postemergence; details: for Pigweed plant response rating: visual injury rating on 0 to 100 scale (0 no effect, 100 complete control), approx. 10 d
# Summary of the method: as §1
# [4] = test system: wheat (Triticum aestivum); test: Test A postemergence; details: for Wheat plant response rating: visual injury rating on 0 to 100 scale (0 no effect, 100 complete control), approx. 10 d
# Summary of the method: as §1
# [5] = test system: blackgrass (Alopecurus myosuroides); test: Test A postemergence; details: for Blackgrass plant response rating: 125 g ai/ha, postemergence, visual injury rating on 0 to 100 scale (0 no effect, 100 complete control), approx. 10 d; for Plant response rating, Blackgrass: Postemergence, 500 g ai/ha, 0 to 100 scale where 0 is no effect and 100 is complete control
# Summary of the method: as §1
# corn (Zea mays) = test: Test A postemergence; details: for Corn plant response rating: visual injury rating on 0 to 100 scale (0 no effect, 100 complete control), approx. 10 d
# Summary of the method: as §1
# [6] = test system: ryegrass, Italian (Italian ryegrass, Lolium multiflorum); test: Test A postemergence; details: for Ryegrass, Italian plant response rating: visual injury rating on 0 to 100 scale (0 no effect, 100 complete control), approx. 10 d
# Summary of the method: as §1
# [7] = test system: ragweed (common ragweed, Ambrosia elatior); test: Test A postemergence; details: for Ragweed plant response rating: visual injury rating on 0 to 100 scale (0 no effect, 100 complete control), approx. 10 d
# Summary of the method: as §1
# [8] = test system: barnyardgrass (Echinochloa crus-galli); test: Test A postemergence; details: for Barnyardgrass plant response rating: 125 g ai/ha, postemergence, visual injury rating on 0 to 100 scale (0 no effect, 100 complete control), approx. 10 d; for Plant response rating, Barnyardgrass: Postemergence, 500 g ai/ha, 0 to 100 scale where 0 is no effect and 100 is complete control
# Summary of the method: as §1
# [9] = test system: giant foxtail (Setaria faberii); test: Test A postemergence; details: for Foxtail, Giant plant response rating: visual injury rating on 0 to 100 scale (0 no effect, 100 complete control), approx. 10 d
# Summary of the method: as §1
# Kochia (Kochia scoparia) [10] = test: Test A preemergence; details: Preemergence; for Plant response rating, Kochia: 125 g ai/ha, visual injury after approximately 10 d, 0 to 100 scale where 0 is no effect and 100 is complete control; for Kochia plant response rating (0 to 100 scale, 0 is no effect, 100 is complete control): 500 g ai/ha, visual injury approx. 10 d
# Summary of the method: as §1
# [11] = test system: pigweed (Amaranthus retroflexus); test: Test A preemergence; details: Preemergence; for Plant response rating, Pigweed: 125 g ai/ha, visual injury after approximately 10 d, 0 to 100 scale where 0 is no effect and 100 is complete control; for Pigweed plant response rating (0 to 100 scale, 0 is no effect, 100 is complete control): 500 g ai/ha, visual injury approx. 10 d
# [12] = test system: ryegrass, Italian (Italian ryegrass, Lolium multiflorum); test: Test A preemergence; details: Preemergence; for Plant response rating, Ryegrass, Italian: 125 g ai/ha, visual injury after approximately 10 d, 0 to 100 scale where 0 is no effect and 100 is complete control; for Ryegrass, Italian plant response rating (0 to 100 scale, 0 is no effect, 100 is complete control): 500 g ai/ha, visual injury approx. 10 d
# Summary of the method: as §1
# [13] = test system: ragweed (common ragweed, Ambrosia elatior); test: Test A preemergence; details: Preemergence; for Plant response rating, Ragweed: 125 g ai/ha, visual injury after approximately 10 d, 0 to 100 scale where 0 is no effect and 100 is complete control; for Ragweed plant response rating (0 to 100 scale, 0 is no effect, 100 is complete control): 500 g ai/ha, visual injury approx. 10 d
# Summary of the method: as §1
# [14] = test system: barnyardgrass (Echinochloa crus-galli); test: Test A preemergence; details: Preemergence; for Plant response rating, Barnyardgrass: 125 g ai/ha, visual injury after approximately 10 d, 0 to 100 scale where 0 is no effect and 100 is complete control; for Barnyardgrass plant response rating (0 to 100 scale, 0 is no effect, 100 is complete control): 500 g ai/ha, visual injury approx. 10 d
# Summary of the method: as §1
# [15] = test system: giant foxtail (Setaria faberii); test: Test A preemergence; details: Preemergence; for Plant response rating, Foxtail, Giant: 125 g ai/ha, visual injury after approximately 10 d, 0 to 100 scale where 0 is no effect and 100 is complete control; for Foxtail, Giant plant response rating (0 to 100 scale, 0 is no effect, 100 is complete control): 500 g ai/ha, visual injury approx. 10 d
# Summary of the method: as §1
# [16] = test system: sedge, umbrella (small-flower umbrella sedge, Cyperus difformis); test: Test B flooded paddy test; details: Flood, 250 g ai/ha; 0 to 100 scale where 0 is no effect and 100 is complete control; 13 to 15 d
# Summary of the method: (§2)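 Rating scale 0–100 (visual, vs untreated controls) after a 13–15 d greenhouse period; application to the flood layer, 3 cm above soil and maintained; plants at 2-leaf stage when treated.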
# [17] = test system: ducksalad (Heteranthera limosa); test: Test B flooded paddy test; details: Flood, 250 g ai/ha; 0 to 100 scale where 0 is no effect and 100 is complete control; 13 to 15 d
# Summary of the method: as §2
# rice (Oryra sativa) = test: Test B flooded paddy test; details: Flood, 250 g ai/ha; 0 to 100 scale where 0 is no effect and 100 is complete control; 13 to 15 d
# Summary of the method: as §2
# [18] = test system: barnyardgrass (Echinochloa crus-galli); test: Test B flooded paddy test; details: Flood, 250 g ai/ha; 0 to 100 scale where 0 is no effect and 100 is complete control; 13 to 15 d
# Summary of the method: as §2
# [19] = Postemergence, 500 g ai/ha, 0 to 100 scale where 0 is no effect and 100 is complete control
# [20] = 125 g ai/ha, postemergence, visual rating after approx. 10 d, 0 to 100 scale (0 no effect, 100 complete control)
Structure (SMILES),"Plant response rating, Kochia (Kochia (Kochia scoparia) [1]; [19])","Plant response rating, Galium [2, 19]","Plant response rating, Pigweed [3, 19]","Plant response rating, Wheat [4, 19]",Blackgrass plant response rating [5],"Plant response rating, Blackgrass [5]","Plant response rating, Corn (corn (Zea mays); [19])","Plant response rating, Ryegrass, Italian [6, 19]","Plant response rating, Ragweed [7, 19]",Barnyardgrass plant response rating [8],"Plant response rating, Barnyardgrass [8]","Plant response rating, Foxtail, Giant [9, 19]","Plant response rating, Kochia (Kochia (Kochia scoparia) [10])","Kochia plant response rating (0 to 100 scale, 0 is no effect, 100 is complete control) (Kochia (Kochia scoparia) [10])","Plant response rating, Pigweed [11]","Pigweed plant response rating (0 to 100 scale, 0 is no effect, 100 is complete control) [11]","Plant response rating, Ryegrass, Italian [12]","Ryegrass, Italian plant response rating (0 to 100 scale, 0 is no effect, 100 is complete control) [12]","Plant response rating, Ragweed [13]","Ragweed plant response rating (0 to 100 scale, 0 is no effect, 100 is complete control) [13]",also measured
COCc1cccc(C2CNC(=O)C2C(=O)Nc2ccc(F)cc2F)c1 (stereo not drawn) [Compound 499],0,40,0,0,0,0,0,0,0,30,80,30,0,30,0,0,0,0,0,0,"Kochia plant response rating (Kochia (Kochia scoparia) [1]; 125 g ai/ha, postemergence): 0; Galium plant response rating ([2]; 125 g ai/ha, postemergence): 0; Pigweed plant response rating ([3]; 125 g ai/ha, postemergence): 0; Wheat plant response rating ([4]; 125 g ai/ha, postemergence): 0; Corn plant response rating (corn (Zea mays); 125 g ai/ha, postemergence): 0; Ryegrass, Italian plant response rating ([6]; 125 g ai/ha, postemergence): 0; Ragweed plant response rating ([7]; 125 g ai/ha, postemergence): 0; Foxtail, Giant plant response rating ([9]; 125 g ai/ha, postemergence): 20; Plant response rating, Barnyardgrass [14]: 30; Barnyardgrass plant response rating (0 to 100 scale, 0 is no effect, 100 is complete control) [14]: 90; Plant response rating, Foxtail, Giant [15]: 30; Foxtail, Giant plant response rating (0 to 100 scale, 0 is no effect, 100 is complete control) [15]: 90; Plant response rating, Sedge, Umbrella [16]: 0; Plant response rating, Ducksalad [17]: 80; Plant response rating, Rice (rice (Oryra sativa)): 15; Plant response rating, Barnyardgrass [18]: 50"
CC(=O)N1CC(c2cccc(C(F)(F)F)c2)C(C(=O)Nc2ccccc2F)C1=O (stereo not drawn) [Compound 503],0,70,0,40,30,70,80,70,30,90,90,90,0,20,0,40,0,50,0,0,"Kochia plant response rating (Kochia (Kochia scoparia) [1]; 125 g ai/ha, postemergence): 0; Galium plant response rating ([2]; 125 g ai/ha, postemergence): 30; Pigweed plant response rating ([3]; 125 g ai/ha, postemergence): 0; Wheat plant response rating ([4]; 125 g ai/ha, postemergence): 0; Corn plant response rating (corn (Zea mays); 125 g ai/ha, postemergence): 20; Ryegrass, Italian plant response rating ([6]; 125 g ai/ha, postemergence): 40; Ragweed plant response rating ([7]; 125 g ai/ha, postemergence): 30; Foxtail, Giant plant response rating ([9]; 125 g ai/ha, postemergence): 90; Plant response rating, Barnyardgrass [14]: 90; Barnyardgrass plant response rating (0 to 100 scale, 0 is no effect, 100 is complete control) [14]: 90; Plant response rating, Foxtail, Giant [15]: 90; Foxtail, Giant plant response rating (0 to 100 scale, 0 is no effect, 100 is complete control) [15]: 90; Plant response rating, Sedge, Umbrella [16]: 0; Plant response rating, Ducksalad [17]: 85; Plant response rating, Rice (rice (Oryra sativa)): 0; Plant response rating, Barnyardgrass [18]: 45"
CN1CC(c2cccc(OC(F)(F)C(F)F)c2)C(C(=O)Nc2ccccc2F)C1=O (stereo not drawn) [Compound 539],70,70,50,70,50,80,90,70,50,90,90,90,60,70,40,80,30,50,0,70,"Plant response rating, Kochia (Kochia (Kochia scoparia) [1]; [20]): 40; Plant response rating, Galium [2, 20]: 70; Plant response rating, Pigweed [3, 20]: 20; Plant response rating, Wheat [4, 20]: 50; Plant response rating, Corn (corn (Zea mays); [20]): 70; Plant response rating, Ryegrass, Italian [6, 20]: 0; Plant response rating, Ragweed [7, 20]: 0; Plant response rating, Foxtail, Giant [9, 20]: 90; Plant response rating, Barnyardgrass [14]: 90; Barnyardgrass plant response rating (0 to 100 scale, 0 is no effect, 100 is complete control) [14]: 90; Plant response rating, Foxtail, Giant [15]: 90; Foxtail, Giant plant response rating (0 to 100 scale, 0 is no effect, 100 is complete control) [15]: 90; Plant response rating, Sedge, Umbrella [16]: 0; Plant response rating, Ducksalad [17]: 95; Plant response rating, Rice (rice (Oryra sativa)): 0; Plant response rating, Barnyardgrass [18]: 65"
